Test results: US20030143251A1, “Skin preparations for external use” (priority 2000, published 2003)
Read-outs that look alike come from different tables or passages of the source.

Key:
[1] = Maintenance on mouse skin samples (residual rate by HPLC); type: in vitro ADME; details: for Maintenance 19 hours after starting incubation: 0.5 g and 2.0 g mouse skin; for Maintenance 19 hours after starting incubation / Residual rate: 0.037M, pH 7.0, 37° C.; for Residual rate: 0.5 g of the skin sample, 40 hours
Protocol: The back skin was depilated and peeled off after sacrificing mice by cervical dislocation at 24 weeks of age.
Each sample was tested in triplicate (n=3) in all of the 4 groups, and mean residual rates were calculated.
HPLC was conducted under the following conditions:
Solvent: methanol-water (20:80, v/v, adjusted to pH 2.5 using phosphoric acid)

[2] = Maintenance in mouse skin extract fluid (residual rate by HPLC); type: in vitro ADME; details: skin extract fluid 1:1 with 0.1M solution, pH 7.0, 37° C.
Protocol: The skin samples obtained in Evaluation example 5 were weighed, and 2.6 g was added to sodium citrate-phosphate buffer solution (5.2 ml, pH 7.0) and homogenized. The homogenate obtained was used as skin extract fluid.
Each sample was tested in triplicate (n=3) in both groups, and mean residual rates were calculated.
HPLC was conducted under the conditions used in Evaluation example 5.

[3] = Stability (decomposition rate) in acidic, neutral and alkaline aqueous solutions; type: physicochemical
[4] = system: mushroom-derived tyrosinase; details: cited from earlier work
[5] = reported; cited from earlier work
[6] = pH 5.5, aqueous solution, 0.045M, 37° C.
[7] = pH 6.5, aqueous solution, 0.045M, 37° C.
[8] = pH 7.5, aqueous solution, 0.045M, 37° C.

| Compound | Maintenance 19 hours after starting incubation [1] | Residual rate [1] | Maintenance 4 hours after starting incubation [2] | Residual rate, times larger than that of β-arbutin ([1]; 2.0 g of the skin sample, 40 hours after incubation) | half-life at 0.045 M ([3]; buffer, pH 6.5) | half-life at 0.045 M ([3]; buffer, pH 7.5) | Decomposition rate constant [3, 6] | Decomposition rate constant [3, 7] | Decomposition rate constant [3, 8] | Residual rate compared with the β-arbutin group ([2]; 20 hours) | Effect on mushroom-derived tyrosinase activity ([4]; Tokkaihei No. 5-932) | Inhibition of mushroom-derived tyrosinase ([4]; Tokkaihei No. 6-153976) | Tyrosinase inhibiting activity ([4]; mushroom-derived tyrosinase, Biochem. Biotech. Biochem., 59, 143 (1995)) | half-life at 0.045 M ([3]; aqueous solution, pH 5.5, over pH 5.5 to 7.5, 37° C., read-out: Half-life in alkaline and acidic regions) | half-life at 0.045 M ([3]; aqueous solution, pH 5.5, pH 5.5, aqueous solution, 0.045M, 37° C., α-arbutin determined after 69 hrs, read-out: Half-life (converted)) | half-life at 0.045 M ([3]; aqueous solution, pH 6.5, pH 6.5, aqueous solution, 0.045M, 37° C., read-out: Half-life (converted)) | half-life at 0.045 M ([3]; aqueous solution, pH 7.5, pH 7.5, aqueous solution, 0.045M, 37° C., read-out: Half-life (converted)) | Cytotoxicity, times more cytotoxic than β-arbutin [5] |
| --- | --- | --- | --- | --- | --- | --- | --- | --- | --- | --- | --- | --- | --- | --- | --- | --- | --- | --- |
| OC[C@H]1O[C@@H](Oc2ccc(O)cc2)[C@H](O)[C@@H](O)[C@@H]1O [β-Arbutin, hydroquinone-β-glucopyranoside, reference compound] | remained virtually intact | 0% | remained virtually intact |  |  |  |  |  |  |  |  |  |  |  |  |  |  |  |
| OCC1OC(Oc2ccc(O)cc2)C(O)C(O)C1O [α-Arbutin, hydroquinone-α-D-glucopyranoside] | remained virtually intact | 87.5% | remained virtually intact | about 10 times | 53.3 h | 31.5 h | 0 | 0.013 | 0.022 | more than twice higher | promotes, rather than inhibits | effective in inhibiting mushroom-derived tyrosinase | does not show tyrosinase inhibiting activity |  |  |  |  |  |
| Oc1ccc(O)cc1 [Hydroquinone, hydroquinone] |  |  |  |  |  |  | 0.064 | 0.903 | 1.117 |  |  |  |  | 0.6 to 10.8 h | 10.8 h | 0.8 h | 0.6 h | about 400 times |
